Measurements from US9359399B2, “Synthetic peptide amides” (Cara Therapeutics, Inc., priority 2006, dated 2016).
Square brackets hold non-standard residues; d marks the D form. Peptide text beside a SMILES is read from it. * marks the point of attachment. Piperidinyl(4-(1-Pro-OH)) = O=C(O)[C@@H]1CCCN1C1CCN(*)CC1; dDab = NCC[C@@H](N)C(=O)O

Legend:
[1] = Membrane permeability assay, Caco-2 TC7 monolayers, apical-to-basolateral (Cerep); conditions: human
CYP2C9 = CYP2C9 (Homo sapiens (Human), UniProt P11712); experiment: Cytochrome P450 CYP2C9 inhibition in human liver microsomes (tolbutamide); conditions: percent remaining CYP activity, 10 uM test compound, 15 minutes
CYP1A = experiment: Cytochrome P450 CYP1A inhibition in human liver microsomes (ethoxyresorufin); type: in vitro ADME; conditions: percent remaining CYP activity, 10 uM test compound, 15 minutes
Procedure: Inhibition of cytochrome P450 oxidase isozymes CYP1A, CYP2C9, CYP2C19, CYP2D6 and CYP3A4 by synthetic peptide amide compounds of the invention was determined according to the following methods performed by Cerep (Seattle, Wash.):
In the cytochrome P450 CYP1A assay, human liver microsomes (0.2 mg/ml protein) were incubated for 15 minutes at 37° C. with 10 uM test compound, 1 uM ethoxyresorufin, 1.3 mM NADP, 3.3 mM glucose-6-phosphate and 0.4 U/ml glucose-6-phosphate dehydrogenase. In the absence of test compound, the ethoxyresorufin added as substrate is oxidized to resorufin, and in the presence of an inhibitor of the CYP isozyme, the amount of resorufin produced is reduced. Furafylline was used as a reference inhibitor.
In each assay, the percent inhibition of the cytochrome P450 CYP P450 isozyme was determined as one hundred times the ratio of (1—the amount of product in the sample in the presence of the test compound) divided by the amount of product in the sample containing untreated isozyme.

CYP2D6 = CYP2D6 (Homo sapiens (Human), UniProt P10635); experiment: Cytochrome P450 CYP2D6 inhibition in human liver microsomes (dextromethorphan); conditions: percent remaining CYP activity, 10 uM test compound, 15 minutes
CYP3A4 = CYP3A4 (Homo sapiens (Human), UniProt P08684); experiment: Cytochrome P450 CYP3A4 inhibition in human liver microsomes (midazolam); conditions: percent remaining CYP activity, 10 uM test compound, 20 minutes
CYP2C19 = CYP2C19 (Homo sapiens (Human), UniProt P33261); experiment: Cytochrome P450 CYP2C19 inhibition in human liver microsomes (omeprazole); conditions: percent remaining CYP activity, 10 uM test compound, 15 minutes
[2] = Inhibition of locomotion in mice (locomotion reduction assay, sedation); set-up: species or system ICR mice; conditions: mouse, in vivo, sc, administered subcutaneously, sedative effect
Procedure: To determine the potential sedative effect of test compounds, the extent of locomotion reduction after the administration of the test compound or vehicle control can be determined and compared with a specialized apparatus designed for this purpose (Opto-Varimex Activity Meter). At the start of each experiment, each mouse was weighed and examined to determine good health. […] The subcutaneous injection was performed in the back of the neck of the mouse, pinched in a “tent” to allow proper access for the syringe needle. After injection, each animal was placed individually in Plexiglas boxes (43 cm×43 cm) inside the Opto-Varimex Activity Meter apparatus. Before the animal was placed in the apparatus, a thin layer of SANI-CHIPS rodent bedding was placed on the bottom of the Plexiglas box to provide a comfortable environment. Each Opto-Varimex Activity Meter apparatus was then turned on and data acquisition begun by the ATM3 Auto-Track System. The data were processed and results expressed in the same way as described for the writhing assay data in Example 47.
Inhibition of acetic acid-induced writhing by a compound is an indication of an analgesic effect (also called an antinociceptive effect). Similarly, a reduction in locomotion caused by administration of the compound can be used as a measure of its general sedative effect.

[3] = system: acetic acid-induced writhing in mice; experiment: Acetic acid-induced writhing assay in mice; type: in vivo, ICR mice; conditions: ICR mice, administered subcutaneously
Procedure: 12: 525-562; Ramabadran and Bansinath (1986) Pharm. Res. 3: 263-270]. Intraperitoneal administration of dilute acetic acid solution causes a writhing behavior in mice. A writhe is defined as a contraction of the abdominal muscles accompanied by an extension of the forelimbs and elongation of the body. The number of writhes observed in the presence and absence of test compounds is counted to determine the analgesic activity of the compounds.
Each day a writhing assay was performed, a vehicle control group of mice (n=6-8) that were treated identically to the test group (except that test compound was omitted from the injection dose) was always included and the average total number of writhes in this group used as the absolute reference point defining 0% decrease in pain perception for all other mice receiving a test compound on that day. Specifically, the total number of writhes of each mouse receiving the test compound was converted to % decrease in pain perception according to the following equation:
[formula] Where Wv is the mean number of writhes in vehicle-treated group and Wc is the number of writhes in compound-treated mouse.
Male ICR mice, 23-37 grams in weight, were weighed and placed in individual observation chambers (usually a 4000 ml glass beaker) with a fine layer of SANI-CHIPS rodent bedding at the bottom. […] After administration of the compound or vehicle control, mice were returned to their individual observation chambers awaiting the intraperitoneal administration of acetic acid solution. […] and acetic acid injection, a dose corresponding to 10 ml/kg of a 0.6% (v/v) acetic acid solution was then injected into the right lower quadrant of the abdomen. Immediately after the injection, the mouse was returned to its observation chamber and the recording of the number of writhes begun immediately. The number of writhes was counted over a 15-min period starting from the time of acetic acid injection, the data being collected over three separate 5 minute time periods (0-5 min, 5-10 min, and 10-15 min).
The data were reported as ED50, and Hill coefficient. […] The Hill coefficient is expressed as the arithmetic mean±sem calculated from the values obtained from the animals.
For dose-response analysis, raw data were converted to % maximum possible effect (% MPE) using the formula: % MPE=((test score−vehicle-treated score)/(0−vehicle-treated score))*100. Raw data were analyzed using a one-way ANOVA followed by Dunnett's post-tests. […] Compounds were administered by the intravenous route.

[4] = system: capsaicin-induced ocular pain; experiment: Capsaicin-induced ocular pain, palpebral opening in rabbits; type: in vivo, albino New Zealand strain rabbits; conditions: 10-30 min. post capsaicin
[5] = Pharmacokinetics in cynomolgus monkeys after intravenous bolus; conditions: cynomolgus monkey, in vivo
[6] = biological target: mouse kappa opioid receptor (mKOR) (Mus musculus (Mouse), UniProt P33534); experiment: cell-based; conditions: read-out: mKOR Efficacy(%)
[7] = Pharmacokinetics in ICR mice after subcutaneous injection; conditions: mouse, in vivo, sc, 1 mg/kg, time for plasma concentration to fall by 50% after maximum
Procedure: A single bolus of the synthetic peptide amide compound was administered by subcutaneous injection to ICR mice (n=6, males, body wt 23-37 g, Charles River, Wilmington, Mass.) and plasma samples taken at 5, 10, 15, 20, 30 60, 90, 120, and 180 minutes post-injection.
Quantitation was performed against a calibration curve of the analyte in blank Cynomolgus monkey plasma using the same internal standard. Data analysis and the extraction of pharmacokinetic parameters were performed with the program PK Solutions 2.0 (Summit Research Services, Ashland, Ohio, USA).

[8] = biological target: human kappa opioid receptor (hKOR) (Homo sapiens (Human), UniProt P41145); experiment: cell-based; conditions: HEK293, read-out: hKOR Efficacy(%)
in vitro = conditions: human, Caco-2

`CN(C(=O)C(c1ccccc1)c1ccccc1)[C@H](CN1CC[C@H](O)C1)c1ccccc1` [Asimadoline, asimadoline, reference compound] gave a Papp A→B at 60 min, 10 uM [1] of 37.5 ×10⁻⁶ cm/s.
In the case of `CNCCCC[C@@H](NC(=O)[C@@H](CC(C)C)NC(=O)[C@@H](Cc1ccccc1)NC(=O)[C@H](N)Cc1ccccc1)C(=O)N1CCCN(C(=N)N)CC1` [Compound (1), D-Phe-D-Phe-D-Leu-(ε-Me)D-Lys-[4-Amidinohomopiperazine amide]], the “Percent Activity of CYP2C9” value (CYP2C9) is reported as 93.2%, the “Percent Activity of CYP1A” value (CYP1A) is reported as 89.8% and the “Percent Activity of CYP2D6” value (CYP2D6) is reported as 96.0%. For the same molecule, the Papp A→B at 60 min, 10 uM [1] was < 0.1 ×10⁻⁶ cm/s, the “Percent Activity of CYP3A4” value (CYP3A4) was 92.5% and the “Percent Activity of CYP2C19” value (CYP2C19) was 98.5%.
With `CNCCCC[C@@H](NC(=O)[C@@H](CC(C)C)NC(=O)[C@@H](Cc1ccccc1)NC(=O)[C@H](N)Cc1ccccc1)C(=O)N1CCC(N)(C(=O)O)CC1` [Compound (3), D-Phe-D-Phe-D-Leu-(ε-Me)D-Lys-[ω(4-aminopiperidine-4-carboxylic acid)]-OH] the “Percent Activity of CYP2C9” value (CYP2C9) was 97.4%, the ED50 [2] was 2.69 mg/kg and the “ED50 in the acetic acid-induced writhing assay” value [3] was 0.052 mg/kg. The “Percent Activity of CYP1A” value (CYP1A) was 93.1%, the “Percent Activity of CYP2D6” value (CYP2D6) was 99.5% and the Papp A→B at 60 min, 10 uM [1] was < 0.02 ×10⁻⁶ cm/s. The “Mean palpebral opening (% Control)” value ([4]; Table VII, 10 mg/ml, five animals) was 76.0 % Control, the “Percent Activity of CYP3A4” value (CYP3A4) was 94.3% and the “Percent Activity of CYP2C19” value (CYP2C19) was 103.2%.
In the case of `CNCCCC[C@@H](NC(=O)[C@@H](CC(C)C)NC(=O)[C@@H](Cc1ccccc1)NC(=O)[C@H](N)Cc1ccccc1)C(=O)N1CCC(N2CCC[C@H]2C(=O)O)CC1` [Compound (6), D-Phe-D-Phe-D-Leu-(ε-Me)D-Lys-[N-(4-piperidinyl)-L-proline]-OH], the “Percent Activity of CYP2C9” value (CYP2C9) is reported as 92.1%, the half-life [5] is reported as 58.6 min and the Emax [6] is reported as 89%. The “Percent Activity of CYP1A” value (CYP1A) was 89.5%, the “Percent Activity of CYP2D6” value (CYP2D6) was 93.9% and the Papp A→B at 60 min, 10 uM [1] was < 0.02 ×10⁻⁶ cm/s. The half-life [7] was 22 min, the “Percent Activity of CYP3A4” value (CYP3A4) was 93.6% and the “Percent Activity of CYP2C19” value (CYP2C19) was 97.2%.
`CC(C)C[C@@H](NC(=O)[C@@H](Cc1ccccc1)NC(=O)[C@H](N)Cc1ccccc1)C(=O)N[C@H](CCCCNC(C)C)C(=O)N1CCC(N)(C(=O)O)CC1` [Compound (9), D-Phe-D-Phe-D-Leu-(8-iPr)D-Lys-[ω(4-aminopiperidine-4-carboxylic acid)]-OH] showed an Emax [8] of 100%.
`CC(C)C[C@@H](NC(=O)[C@@H](Cc1ccccc1)NC(=O)[C@H](N)Cc1ccccc1)C(=O)N[C@H](CCN)C(=O)N1CCC(N2CCC[C@H]2C(=O)O)CC1` [Compound (12), D-Phe-D-Phe-D-Leu-D-Dbu4N-(4-piperidinyl)-L-prolinel-OH] (H-[dF][dF][dL][dDab]-{Piperidinyl(4-(1-Pro-OH))}) showed an Emax [8] of 100%.
In the case of `COc1ccc([C@@H]2Sc3ccccc3N(CCN(C)C)C(=O)[C@@H]2OC(C)=O)cc1` [Diltiazem, diltiazem, reference compound], the “Mean palpebral opening (% Control)” value ([4]; Table VII, 10 mM, five animals) is reported as 74.6 % Control and the “Mean palpebral opening (% Control)” value ([4]; Table VIII, 10 mM, ten animals) is reported as 77.6 % Control.
With `CC(CCc1ccccc1)NCC(O)c1ccc(O)c(C(N)=O)c1` (stereo not drawn) [Labetalol, labetalol] the Papp A→B at 60 min, 10 uM (in vitro) was 9.9 ×10⁻⁶ cm/s.
With `CN1CC[C@]23c4c5ccc(O)c4O[C@H]2[C@@H](O)C=C[C@H]3[C@H]1C5` [Morphine, morphine, reference compound] the “Mean palpebral opening (% Control)” value ([4]; Table VIII, 10 mg/ml, ten animals) was 74.8 % Control.
Work on `CC(C)NCC(O)COc1cccc2ccccc12` (stereo not drawn) [Propranolol, propranolol] yielded a Papp A→B at 60 min, 10 uM (in vitro) of 53.8 ×10⁻⁶ cm/s.
In the case of `CC[C@]1(O)C[C@@H]2CN(CCc3c([nH]c4ccccc34)[C@@](C(=O)OC)(c3cc4c(cc3OC)N(C)[C@H]3[C@@](O)(C(=O)OC)[C@H](OC(C)=O)[C@]5(CC)C=CCN6CC[C@]43[C@@H]65)C2)C1` [Vinblastine, vinblastine], the Papp A→B at 60 min, 10 uM (in vitro) is reported as < 0.2 ×10⁻⁶ cm/s.
